Results on 20 compounds are retold here after patent US20250002435A1, “ARYLATED FENCHONE DERIVATIVES, COMPOSITIONS COMPRISING THEM, PROCESSES FOR THEIR PREPARATION AND USES THEREOF” (priority 2021, published 2025).

“Also recorded” adds a separate entry of the source. Read-outs that look alike come from different tables or passages of the source.

In experiment [1] the target is T1, hCB2R (Homo sapiens (Human), UniProt P34972). In words: [3H]CP-55,940 competition displacement binding, membranes of CHO-K1 cells expressing human CB2R. How it is done:
(§1) Affinity for Cannabinoid Receptors. The compounds were further characterized using a radioligand binding assay to determine their affinities for CB1R and CB2R based on each test compound's ability to displace the radiolabeled CB1R/CB2R agonist CP-55,940 from membranes prepared from a mouse brain (a source of CB1R) and membranes of cells expressing the human CB2R. […] Therefore, the compounds were assayed using membranes from CHO-K1 cells expressing the human CB2R (hCB2R).
(§2) Membranes from cells expressing human CB2R were purchased from Charles River, (Cat #A308; Ohio, US). Solutions of test compounds ranging from 0.1 nM to 10 mM were prepared in DMSO. The desired amount of membrane preparation was diluted with ice-cold assay buffer (50 mM Tris-HCl, 2.5 mM EDTA, 5 mM MgCl2, 0.1% BSA, pH 7.4) and was vortexed. […] The assays were incubated for 90 minutes at 30° C. and then immediately filtered on WHATMAN GF/B FilterPaper (Fired) using a Brandel M-24R Harvester followed by six washes with ice cold wash buffer (50 mM Tris-HCl, 2.5 mM EDTA, 5 mM MgCl2, 0.1% BSA, pH 7.4). Radioactivity was detected by adding the FilterPaper directly to the ULTIMA GOLD scintillation cocktail (PerkinElmer), incubation at 20° C. for 60 min and then counted using a Tri-Carb 4910TR liquid scintillation counter.

For experiment [2], the target named is T1, hCB2R. Put plainly: [35S]GTPγS binding assay, hCB2R CHO cell membranes. The format is biochemical. The conditions noted are these: for functional activity at hCB2R (agonist / inverse agonist): [35S]GTPγS binding; for EC50: [35S]GTPγS binding to hCB2R, two independent experiments in triplicate; for E(max) %: percentage of HU-308 response at 1 μM. On the procedure:
Functional Characterization.
The method used for measuring agonist-stimulated binding of [^35S]GTPγS was based on a described protocol. The assays were carried out with GTPγS assay buffer (50 mM Tris HCl (pH 7.4), 0.2 mM EGTA, 9 mM MgCl2, 150 mM NaCl, 1 mg/ml BSA). Briefly, membranes (5 μg protein) were incubated in assay buffer containing 100 μM GDP, 0.05 nM [^35S]GTPγS, test compounds at various concentrations in siliconized glass tubes. Bound ligand was separated from free ligand by vacuum filtration. Nonspecific binding was determined using 10 μM GTPS. Basal binding was assayed in the absence of the ligand and in the presence of GDP.
On the technique in general: GTPγS is a poorly hydrolysed GTP analogue; its binding reports G protein activation.

The target in the next experiment is mCB1R (Mus musculus (Mouse), UniProt P47746). Put plainly: [3H]CP-55,940 competition displacement binding, crude membranes from mouse brain. On the procedure:
as §1, §2

The mark [3] stands for this setting: >10 μM = Displacement of radioactive ligand detected at high concentrations competing ligand, read-out: Ki mCB1R.
Where [4] appears, read: displacement of [3H]CP-55,940, NB = No binding detected at concentrations up to 10 μM, read-out: Ki (nM) mCB1R.

T1 sequence (P34972 whole entry): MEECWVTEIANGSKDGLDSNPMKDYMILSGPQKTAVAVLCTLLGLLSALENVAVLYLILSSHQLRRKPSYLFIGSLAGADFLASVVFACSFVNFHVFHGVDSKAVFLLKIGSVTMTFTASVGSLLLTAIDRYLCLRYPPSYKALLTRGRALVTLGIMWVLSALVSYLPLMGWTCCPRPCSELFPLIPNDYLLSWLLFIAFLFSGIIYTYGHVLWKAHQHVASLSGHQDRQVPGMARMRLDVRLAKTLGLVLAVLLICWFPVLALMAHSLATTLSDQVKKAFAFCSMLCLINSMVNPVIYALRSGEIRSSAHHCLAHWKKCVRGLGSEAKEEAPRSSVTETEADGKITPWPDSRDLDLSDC
mCB1R, sequence (P47746 whole entry): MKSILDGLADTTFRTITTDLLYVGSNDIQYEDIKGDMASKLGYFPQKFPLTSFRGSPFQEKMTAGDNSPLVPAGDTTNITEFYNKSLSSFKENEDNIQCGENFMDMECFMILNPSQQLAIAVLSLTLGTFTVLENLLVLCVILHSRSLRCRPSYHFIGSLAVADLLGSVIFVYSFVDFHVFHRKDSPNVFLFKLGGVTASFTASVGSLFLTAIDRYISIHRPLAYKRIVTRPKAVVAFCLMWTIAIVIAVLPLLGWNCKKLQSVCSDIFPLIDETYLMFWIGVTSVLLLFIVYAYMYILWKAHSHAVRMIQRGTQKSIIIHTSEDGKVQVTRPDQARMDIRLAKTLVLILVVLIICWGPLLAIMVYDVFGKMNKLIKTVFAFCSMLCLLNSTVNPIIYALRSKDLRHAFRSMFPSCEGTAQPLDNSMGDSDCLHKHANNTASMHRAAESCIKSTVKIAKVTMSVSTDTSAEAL

As to `CCCCCc1cc(OC)c(C2(O)C3(C)CCC(C3)C2(C)C)c(OC)c1` (single isomer, unassigned) [Compound 1a, 2-(2,6′-dimethoxy-4′-pentylphenyl)-1,3,3-trimethylbicyclo[2.2.1]heptan-2-ol], the Ki (commonly the equilibrium dissociation constant of an inhibitor or competing ligand from its target) on hCB2R [1] (displacement of [3H]CP-55,940) worked out at 47.7 nM. At hCB2R [2], the “functional activity at hCB2R (agonist / inverse agonist)” value was “inverse agonist”; the midpoint of the response, the EC50, lay at 1580 nM; the “E(max) %” value worked out at 24.08%. In addition, the IC50 (in general, the concentration needed to halve the response being measured) at hCB2R [2] (read-out: IC50, reduction of [35S]GTPγS binding in hCB2R membrane) was determined as 1580 nM. On mCB1R (setting [3]), the Ki is greater than 10000 nM. For the same compound, at mCB1R (in words), the “inhibition of [3H]CP-55,940 binding to mCB1R” value is “no measurable inhibition”.
For `COc1cc(C)cc(OC)c1C1(O)C2(C)CCC(C2)C1(C)C` (single isomer, unassigned) [Compound 1e, 2-(2,6′-dimethoxy-4′-methylphenyl)-1,3,3-trimethylbicyclo[2.2.1]-heptan-2-ol], the Ki at mCB1R (read-out: Ki (nM) mCB1R) is greater than 10000 nM.
For `COc1cc(C)cc(OC)c1C1(O)C2(C)CCC(C2)C1(C)C` (single isomer, unassigned) [Compound 1f, 2-(2,6′-dimethoxy-4′-methylphenyl)-1,3,3-trimethylbicyclo[2.2.1]-heptan-2-ol], the Ki was 233 nM at hCB2R [1] and greater than 10000 nM at mCB1R (setting [4]).
`CCCCCCc1ccc(OC)c(C2(O)C3(C)CCC(C3)C2(C)C)c1OC` (single isomer, unassigned) [Compound 2a, 2-(3′-hexyl-2,6′-dimethoxyphenyl)-1,3,3-trimethylbicyclo[2.2.1]heptan-2-ol]: the results for the inhibition constant (Ki) on hCB2R [1] (displacement of [3H]CP-55,940) and on mCB1R (setting [4]) were 224 nM and greater than 10000 nM, respectively.
As for `CCCCCCc1ccc(OC)c(C2(O)C3(C)CCC(C3)C2(C)C)c1OC` (single isomer, unassigned) [Compound 2b, 2-(3′-hexyl-2,6′-dimethoxyphenyl)-1,3,3-trimethylbicyclo[2.2.1]heptan-2-ol], the inhibition constant Ki on hCB2R [1] (displacement of [3H]CP-55,940) was 73.4 nM; at mCB1R (setting [3]) it was greater than 10000 nM. Also, the “functional activity at hCB2R (agonist / inverse agonist)” value at hCB2R [2] was “weakly stimulated; also recorded: agonist”. The “E(max) %” value at hCB2R [2] worked out at 46.2%.
Take `CCCc1ccc(OC)c(C2(O)C3(C)CCC(C3)C2(C)C)c1` (single isomer, unassigned) [Compound 3a, 2-(2′-methoxy-5′-propylphenyl)-1,3,3-trimethylbicyclo[2.2.1]heptan-2-ol]: the Ki on mCB1R (read-out: Ki (nM) mCB1R) is greater than 10000 nM.
Regarding `CCCc1ccc(OC)c(C2(O)C3(C)CCC(C3)C2(C)C)c1` (single isomer, unassigned) [Compound 3b, 2-(2′-methoxy-5′-propylphenyl)-1,3,3-trimethylbicyclo[2.2.1]heptan-2-ol], at mCB1R (setting [4]), the Ki is greater than 10000 nM.
On to `CCCCCc1ccc(OC)c(C2(O)C3(C)CCC(C3)C2(C)C)c1` (single isomer, unassigned) [Compound 3c, 2-(2′-methoxy-5′-pentylphenyl)-1,3,3-trimethylbicyclo[2.2.1]heptan-2-ol], for which the Ki on mCB1R (read-out: Ki (nM) mCB1R) was greater than 10000 nM.
Regarding `CCCCCc1ccc(OC)c(C2(O)C3(C)CCC(C3)C2(C)C)c1` (single isomer, unassigned) [Compound 3d, 2-(2′-methoxy-5′-pentylphenyl)-1,3,3-trimethylbicyclo[2.2.1]heptan-2-ol], at mCB1R (setting [4]), the inhibitory constant (Ki) was greater than 10000 nM.
On to `CCC(C)(C)c1ccc(OC)c(C2(O)C3(C)CCC(C3)C2(C)C)c1` (single isomer, unassigned) [Compound 3e, 2-(2′-methoxy-5′-(tert-pentyl)phenyl)-1,3,3-trimethylbicyclo[2.2.1]heptan-2-ol], for which the Ki at mCB1R (read-out: Ki (nM) mCB1R) was greater than 10000 nM.
In the case of `CCC(C)(C)c1ccc(OC)c(C2(O)C3(C)CCC(C3)C2(C)C)c1` (single isomer, unassigned) [Compound 3f, 2-(2′-methoxy-5′-(tert-pentyl)phenyl)-1,3,3-trimethylbicyclo[2.2.1]heptan-2-ol], at mCB1R (setting [4]), the Ki was greater than 10000 nM.
Take `CCCCCCCCc1ccc(OC)c(C2(O)C3(C)CCC(C3)C2(C)C)c1` (single isomer, unassigned) [Compound 3g, 2-(2′-methoxy-5′-octylphenyl)-1,3,3-trimethylbicyclo[2.2.1]heptan-2-ol]: at mCB1R (read-out: Ki (nM) mCB1R), the inhibitory constant (Ki) was greater than 10000 nM.
Take `CCCCCCCCc1ccc(OC)c(C2(O)C3(C)CCC(C3)C2(C)C)c1` (single isomer, unassigned) [Compound 3h, 2-(2′-methoxy-5′-octylphenyl)-1,3,3-trimethylbicyclo[2.2.1]heptan-2-ol]: at mCB1R (setting [4]), the inhibition constant (Ki) is greater than 10000 nM.
For the compound `CCCCCc1cc(OC)c(C2(O)C3(C)CCC(C3)C2(C)C)c(OC)c1F` (single isomer, unassigned) [Compound 4a, 2-(3′-fluoro-2′,6′-dimethoxy-4′-pentylphenyl)-1,3,3-trimethylbicyclo[2.2.1]hept-an-2-ol], the Ki on mCB1R (setting [3]) was greater than 10000 nM.
On to `CCCCCc1cc(OC)c(C2(O)C3(C)CCC(C3)C2(C)C)c(OC)c1F` (single isomer, unassigned) [Compound 4b, 2-(3′-fluoro-2′,6′-dimethoxy-4′-pentylphenyl)-1,3,3-trimethylbicyclo[2.2.1]hept-an-2-ol], for which, at hCB2R [2], the “functional activity at hCB2R (agonist / inverse agonist)” value was “agonist” and a half-maximal effect (EC50) was put at 305 nM. Further, on mCB1R (setting [3]), the Ki is greater than 10000 nM.
Regarding `CCCCCCC(C)(C)c1cc(OC)c(C2(O)C3(C)CCC(C3)C2(C)C)c(OC)c1F` (single isomer, unassigned) [Compound 4c, 2-(3′-fluoro-2,6′-dimethoxy-4′-(2″-methyloctan-2″-yl)phenyl)-1,3,3-trimethyl-bicyclo[2.2.1]heptan-2-ol], the figures for the Ki on hCB2R [1] (displacement of [3H]CP-55,940) and at mCB1R (setting [4]) were 438 nM and greater than 10000 nM, respectively.
Compound `CCCCCCC(C)(C)c1cc(OC)c(C2(O)C3(C)CCC(C3)C2(C)C)c(OC)c1F` (single isomer, unassigned) [Compound 4d, 2-(3′-fluoro-2,6′-dimethoxy-4′-(2″-methyloctan-2″-yl)phenyl)-1,3,3-trimethyl-bicyclo[2.2.1]heptan-2-ol] gave a Ki on hCB2R [1] (displacement of [3H]CP-55,940) of 56.6 nM. On hCB2R [2], the “functional activity at hCB2R (agonist / inverse agonist)” value is recorded as “agonist”; the EC50 (in general, the concentration at which the effect is half-maximal) was found to be 104 nM; the “E(max) %” value is reported as 118.7%. Also, the Ki on mCB1R (setting [4]) is greater than 10000 nM.
With `CCCCCCC(C)(C)c1cc(OC)c([C@@]2(O)C3(C)CCC(C3)C2(C)C)c(OC)c1` (stereo partly drawn) [Compound 1c, 2-(2,6′-dimethoxy-4′-(2″-methyloctan-2″-yl)phenyl)-1,3,3-trimethyl-bicyclo[2.2.1]heptan-2-ol], on hCB2R [1] (displacement of [3H]CP-55,940), the Ki was 56.8 nM. Besides, at hCB2R [2], the “functional activity at hCB2R (agonist / inverse agonist)” value was “agonist”, the EC50 turned out to be 121 nM and the “E(max) %” value turned out to be 87.15%. At mCB1R (setting [4]), the Ki was greater than 10000 nM.
As to `CCCCCCC(C)(C)c1cc(O)c(C2(O)C3(C)CCC(C3)C2(C)C)c(OC)c1` (stereo not drawn) [Compound 5c, 2-(2′-hydroxy-6′-methoxy-4′-(2″-methyloctan-2″-yl)phenyl)-1,3,3-trimethyl-bicyclo[2.2.1]heptan-2-ol], the figures for the Ki at hCB2R [1] (displacement of [3H]CP-55,940) and on mCB1R (setting [4]) were 107 nM and greater than 10000 nM, respectively.
On to `CCCCCCC(C)(C)c1cc(OC)c([C@@H]2C=C(CO)[C@@H]3C[C@H]2C3(C)C)c(OC)c1` [HU-308, reference compound], for which, at hCB2R [2], the “functional activity at hCB2R (agonist / inverse agonist)” value is “agonist” and the “E(max) %” value is listed as 100%. Besides, the Ki on mCB1R is greater than 10000 nM.
